Measurements: patent US20240092825A1, “CERTAIN CHEMICAL ENTITIES, COMPOSITIONS, AND METHODS” (priority 2021, published 2024)
Counter-ions that a name gives are not always drawn.

How the values were obtained:
[1] = Accelerated stability test of Crystalline Form I, storage at 40° C./75% RH (open); format: physicochemical; conditions: for Appearance / DSC / Purity / XRPD: 40° C./75% RH (open)
Description: (§1) X-ray powder diffraction (XRPD) patterns were obtained on a Bruker D8 Advance. A CuK source (=1.54179 angstrom) operating minimally at 40 kV and 40 mA scans each sample between 3 and 40 degrees 2-theta. The scanning rate is 10 degrees 2-theta per minute and the sample rotation speed is 15 revolutions per minute.
(§2) Differential scanning calorimetry analysis was carried out on a TA Instrument DSC unit (TA Q2000). Samples were heated in non-hermetic aluminum pans from ambient to 260° C. at 10° C./min.
(§3) Crystalline Form I was not changed after storage at 40° C./75% RH for 6 months, or storage at 25° C./60% RH for 36 months.

[2] = Long-term stability test of Crystalline Form I, storage at 25° C./60% RH (open); format: physicochemical; conditions: for Appearance / DSC / Purity / XRPD: 25° C./60% RH (open)
Description: as §1, §2, §3

C[C@]12CC[C@H](OC(=O)N3CCNCC3)C[C@H]1CC[C@@H]1[C@@H]2CC[C@]2(C)[C@@H](c3ccc(=O)oc3)CC[C@]12O [Crystalline Form I, (3S,5R,8R,9S,10S,13R,14S,17R)-14-hydroxy-10,13-dimethyl-17-(2-oxo-2H-pyran-5-yl)hexadecahydro-1H-cyclopenta[a]phenanthren-3-yl piperazine-1-carboxylate maleate]
Appearance ([1]; 0 month): White powder
DSC ([1]; 0 month): 233.84° ° C.
Purity ([1]; 0 month): 99.86%
XRPD ([1]; 0 month): Form I
Appearance ([1]; 6 months): White powder
DSC ([1]; 6 months): 234.28° ° C.
Purity ([1]; 6 months): 99.91%
XRPD ([1]; 6 months): Form I
Change of crystalline form after storage ([1]; storage at 40° C./75% RH for 6 months): not changed
Appearance ([2]; 0 month): White powder
DSC ([2]; 0 month): 233.84° ° C.
Purity ([2]; 0 month): 99.86%
XRPD ([2]; 0 month): Form I
Appearance ([2]; 12 months): White powder
DSC ([2]; 12 months): 234.41° ° C.
Purity ([2]; 12 months): 99.87%
XRPD ([2]; 12 months): Form I
Appearance ([2]; 24 months): White powder
DSC ([2]; 24 months): 232.9° ° C.
Purity ([2]; 24 months): 99.91%
XRPD ([2]; 24 months): Form I
Appearance ([2]; 36 months): White powder
DSC ([2]; 36 months): 233.6° ° C.
Purity ([2]; 36 months): 100.00%
XRPD ([2]; 36 months): Form I
Change of crystalline form after storage ([2]; storage at 25° C./60% RH for 36 months): not changed
